Measurements as given in patent US20050008715A1, “Method for preventing fungal growth in plants” (priority 2003, published 2005).
Marks after values point to notes of the source that are not given here.

Assays:
Type in all cases: cell-based
[1] = system: Pythium and Phytophthora species; assay: Mycelial growth in amended basal nutrient solution; conditions: basal nutrient solution amended with metalaxyl
Description: (§1) The efficacy of the garlic extract was tested against […] soil-borne fungi that cause root and lower stem rots of plants. The fungal pathogens included: Pythium aphanidermatum, Pythium irregular, Pythium ultimum, Phytophthora capsici, Phytophthora cinnamomi, Phytophthora nicotiana, Rhizoctonia solani, Fusarium oxysporum f.sp. lycopersici, Fusarium oxysporum f.sp. spinaciae, and Thielaviopsis basicola. All isolates used in this investigation were known to be pathogenic to various cultivated plant species.
All isolates of Pythium aphanidermatum, Pythium irregular, Pythum ultimum, Phytophthora capsici, Phytophthora cinnamomi, Phytophthora nicotiana, Rhizoctonia solani, Fusarium oxysporum f.sp. lycopersici, Fusarium oxysporum f.sp. spinaciae were grown on standard corn meal agar (CMA) for 8 to 9 days. Plugs from inoculum plates were taken using a #4 cork borer (5 mm diameter). Inoculum plugs were placed into 5-cm sterile plastic petri dishes containing 10 ml of a basal nutrient solution that consisted of 60% (v/v) clarified V-8 juice and sterile distilled water (SDW). Basal nutrient solutions were amended with the appropriate treatments. […] Cultures were placed into a growth chamber and maintained in the dark at 22(C(1(C. After 48 hours, mycelial growth (if any was visible) from culture plugs was measured.

[2] = system: Phytophthora nicotiana; assay: Mycelial growth from inoculum plugs in amended basal nutrient solution; conditions: 48 hours
Description: as §1
(§2) All isolates of Pythium aphanidermatum, Pythium irregular, Pythum ultimum, Phytophthora capsici, Phytophthora cinnamomi, Phytophthora nicotiana, Rhizoctonia solani, Fusarium oxysporum f.sp. lycopersici, Fusarium oxysporum f.sp. spinaciae were grown on standard corn meal agar (CMA) for 8 to 9 days. Plugs from inoculum plates were taken using a #4 cork borer (5 mm diameter). Inoculum plugs were placed into 5-cm sterile plastic petri dishes containing 10 ml of a basal nutrient solution that consisted of 60% (v/v) clarified V-8 juice and sterile distilled water (SDW). Basal nutrient solutions were amended with the appropriate treatments. Treatments included SDW (non-treated control), a fungicidal agent appropriate to each species (metylaxyl for the Pythium and Phytophthora species, PCNB for Rhizoctonia, and Allegiance(r) for Fusarium), or 10%, 15%, 20%, 25%, or 30% (v/v) garlic extract. Cultures were placed into a growth chamber and maintained in the dark at 22(C(1(C. After 48 hours, mycelial growth (if any was visible) from culture plugs was measured.

[3] = system: Pythium irregular; assay: as above; conditions: 48 hours
Description: as §1, §2

[4] = system: Phytophthora capsici; assay: as above; conditions: 48 hours
Description: as §1, §2

[5] = system: Pythium aphanidermatum; assay: as above; conditions: 48 hours
Description: as §1, §2

[6] = system: Phytophthora cinnamomi; assay: as above; conditions: 48 hours
Description: as §1, §2

[7] = system: Pythium ultimum; assay: as above; conditions: 48 hours
Description: as §1, §2

[8] = system: Rhizoctonia solani; assay: as above; conditions: for Growth of Rhizoctonia on amended basal nutrient solution: PCNB
Description: as §1, §2

[9] = Fungicide control (Metylaxyl) in basal nutrient solution
[10] = Fungicide control (Metylaxyl), from edge of inoculum plug

COCC(=O)N(c1c(C)cccc1C)C(C)C(=O)OC (centres unmarked) [Metylaxyl]
Pythium and Phytophthora species that grew from the inoculum plugs [1]: none | Plates with visible mycelial growth (%) [2, 9]: 0% | Measured growth (cm) [2, 10]: 0 cm | Plates with visible mycelial growth (%) [3, 9]: 0% | Measured growth (cm) [3, 10]: 0 cm | Plates with visible mycelial growth (%) [4, 9]: 0% | Measured growth (cm) [4, 10]: 0 cm | Plates with visible mycelial growth (%) [5, 9]: 0% | Measured growth (cm) [5, 10]: 0 cm | Plates with visible mycelial growth (%) [6, 9]: 0% | Measured growth (cm) [6, 10]: 0 cm | Plates with visible mycelial growth (%) [7, 9]: 0% | Measured growth (cm) [7, 10]: 0 cm

O=[N+]([O-])c1c(Cl)c(Cl)c(Cl)c(Cl)c1Cl [PCNB]
Plates with visible mycelial growth (%) ([8]; Fungicide control (PCNB) in basal nutrient solution, 48 hours): 50^x % | Measured growth (cm) ([8]; Fungicide control (PCNB), 48 hours, from edge of inoculum plug): 0.3 cm | Growth of Rhizoctonia on amended basal nutrient solution ([8]; first replication, inappropriate PCNB concentration): limited amount of growth | Growth of Rhizoctonia on amended basal nutrient solution ([8]; second replication): did not grow
